Measured values from patent publication US20250020650A1, “METHOD OF PREDICTING A PATIENT'S BENEFIT FROM THERAPY WITH AN IMMUNE CHECKPOINT INHIBITOR” (EBERHARD KARLS UNIVERSITAET TUEBINGEN MEDIZINISCHE FAKULTAET, priority 2021, published 2025).
Values belong to the compound of their own block, whether it stands above or below them.

Experiments:
[1] = test system: platelet adhesion to fibronectin; assay: Platelet adhesion to fibronectin-coated surface with platelet-blocking agents; format: cell-based, human; details: washed platelets pretreated 30 minutes at 37° C.; 5 μg/mL anti-CD42b, 20 μg/mL anti-integrin β1 and anti-Integrin α5, 1 μg/mL Tirofiban
Procedure: To prepare fibronectin matrices, plates were coated with a human plasma fibronectin purified protein (R&D, Minneapolis, MN, USA), (concentration 50 μg/cm^2) for 120 min. For blocking of GPIb-IX-V complex, α5β1 or GPIIbIIIa, washed platelets (8×10^7/mL) were pretreated with 5 μg/mL anti-CD42b (clone: AK2), 20 μg/mL anti-integrin β1 (clone: P4C10) and anti-Integrin α5 (clone: JBS5), 1 μg/mL Tirofiban or corresponding control IgG1 (20 μg/mL) for 30 minutes at 37° C. and 7% CO2. After co-incubation with platelets (8×10^7/mL) for 30 min at 37° C. and 7% CO2, non-adherent platelets were removed via three washing steps using PBS. After removal of non-adherent platelets cells were fixed in 2% PFA in PBS (pH 7.4) for 10 min at −20° C. Platelet adhesion to fibronectin fibrils was evaluated by calculating surface coverage area and platelet count/FoV and from microscopic images using an ImageJ script (v. 1.52).

PD-L1 on platelets [2] = target: T1, PD-L1 on platelets (Homo sapiens, UniProt Q9NZQ7); assay: NY-ESO-1 specific CD4+ TEM co-incubated with PD-L1 positive platelets (IFNγ and TNFα); format: cell-based; details: pPD-L1 positive platelets pre-treated with Atezolizumab 100 μg/mL for 30 min, NY-ESO-1 peptides
T1 construct: PD-L1 positive platelets from NSCLC patients were pre-treated with the anti-PD-L1 mAB Atezolizumab; endogenous in cells; host or cells: platelets from the peripheral blood of NSCLC patients
T1 sequence (Q9NZQ7 19-290): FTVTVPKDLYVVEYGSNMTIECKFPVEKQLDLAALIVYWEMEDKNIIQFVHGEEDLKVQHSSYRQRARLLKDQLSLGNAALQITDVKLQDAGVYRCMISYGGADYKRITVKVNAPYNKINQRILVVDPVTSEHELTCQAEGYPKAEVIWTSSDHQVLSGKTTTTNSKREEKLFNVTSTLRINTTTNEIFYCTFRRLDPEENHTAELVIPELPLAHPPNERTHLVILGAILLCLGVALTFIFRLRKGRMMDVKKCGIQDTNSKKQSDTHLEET
Procedure: The generation of NY-ESO-1-specific T cells was performed using as described previously. In brief, PBMCs from a healthy donor (1×10^7/mL) were stimulated using pools of NY-ESO-1 overlapping peptides (1 μg/mL). The NY-ESO-1 overlapping peptide pool of 15 amino acid length (11 amino acid overlap) was purchased via Miltenyi Biotec. The cells were cultured in RPMI 1640 containing 10% human AB-serum and 1% L-glutamin in the presence of 10 U/mL recombinant IL-2 and 10 ng/ml II-7. Culture medium was replaced every third day. After a pre-sensitization period of 7-14 days, NY-ESO-1 specific, IFNγ^+ T cells were enriched after re-stimulation with NY-ESO-1 peptide pool for 6 h using CliniMACS® (Miltenyi Biotec) technique as reported previously. After enrichment, NY-ESO-1 specific T cells were expanded for 14 days in the presence of IL-7 (10 ng/ml), IL-15 (10 ng/mL) and IL-2 (50 U/mL). T cell specificity was analyzed via intracellular IFNγ staining as stated above. For further characterization of the T-cells the differentiation markers anti-CD45RO, mouse (1:200, clone: HI100), anti-CD62L, mouse (1:400, clone: DREG-56), anti-CD28, mouse (1:200, clone: CD28.2) and anti-CD27, mouse (1:200, clone: M-T271) were co-analyzed by flow cytometry. […] NY-ESO-1 specific T cell activity was determined by intracellular TNFα and IFNγ quantified via flow cytometry as described above.

PD-L1 on platelets [3] = target: T1, PD-L1 on platelets; assay: IFNγ ELISPOT and cytokine staining of EBV/CMV peptide-stimulated T cells co-incubated with PD-L1 positive platelets; format: cell-based; details: platelets from NSCLC patients pre-treated 30 min, EBV/CMV-derived peptides, IFNγ and TNFα
Procedure: Freshly thawed (ex vivo) PBMCs from healthy donors were analyzed by enzyme-linked immunospot (ELISPOT) assay in duplicates. Interferon γ (IFNγ) ELISPOT assays in the inventors' study were performed as described previously. In brief, 96-well nitrocellulose plates (Millipore) were coated with 1 mg/mL anti-IFNγ mAb (Mabtech) and incubated overnight at 4° C. In a next step, plates were blocked with human serum (10%) for 2 hours at 37° C. PBMCs (2.5×10^5 cells per well) were pulsed with an EBV/CMV epitope mix containing the frequently recognized peptides BRLF109-117 […] (SEQ ID NO: 11) (A*02) peptide and CMV pp65 (A*02) peptide NLVPMVATV (SEQ ID NO: 12) and incubated with or without platelets (ratio 1:50) for 24 hours. Phytohemagglutinin was used as positive control. HLA-A*02 (KLFEKVKEV (SEQ ID NO: 13))- and B*07 (KPSEKIQVL (SEQ ID NO: 14))-restricted control peptides derived from benign tissues (HV-exclusive HLA ligands) served as negative control. […] Readout was performed according to the manufacturer's instructions. Spots were counted using an ImmunoSpot S5 analyzer (CTL).
Peptide-specific T cells were further analyzed by intracellular cytokine and cell surface marker staining. […] Viable cells were determined using Aqua live/dead (1:400 dilution, Invitrogen). Samples were analyzed on a FACS Canto II cytometer (BD) and evaluated using FlowJo software v. […]

platelets = assay: Controlled platelet stimulation, flow cytometry of pPD-L1; format: cell-based, human; details: 10 μM TRAP-6, 2.5 μM ADP or 5 μg/mL collagen for 2 minutes, NSCLC patient platelets
Procedure: Platelets were obtained from healthy donors (not taking any medication for at least 10 days) and NSCLC patients after informed writing consent. Citrated blood was briefly centrifuged for 20 min at 120×g, the upper fraction was harvested as platelet-rich plasma (PRP). Platelets were washed twice with citrate wash buffer (128 mmol/L NaCl, 11 mmol/L glucose, 7.5 mmol/L Na2HPO4, 4.8 mmol/L sodium citrate, 4.3 mmol/L NaH2PO4, 2.4 citric acid, 0.35% bovine serum albumin, and 50 ng/ml prostaglandin E1 (PGE1)). […] For platelet activation 10 μM of the Thrombin Receptor Activator Peptide 6 (TRAP-6), a protease-activated receptor 1 (PAR1) agonist, 2.5 μM ADP or 5 μg/mL Collagen was added to the platelets for 2 minutes. Platelets were fixed by 2% paraformaldehyde for 10 min and washed twice with PBS containing 1% FCS.
Flow cytometry was performed using fluorescence-conjugates or specific mAb and their controls followed by species-specific conjugate (Table 2) using a FACS Cantoll flow cytometer […] or a LSRFortessa (Becton Dickinson) from the flow cytometer facility Tuebingen.
Positive cells in percentage (%) were calculated as follows: Surface expression in percent obtained with the specific antibody—surface expression in percent obtained with isotype control. Platelets were preselected by CD41a^+ and CD62P^− (resting) or CD62P^+ (activated). Data analysis was performed using FlowJo software (v.10). In order to verify the reproducibility of the inventors' flow cytometry system, the inventors performed a Bland-Altman analysis (FIG. 11 f). For immunophenotyping of PBMC subsets of lung cancer patients and healthy control donors were identified by counterstaining with CD3-PECy5 (BD biosciences, San Diego, CA), CD19-APC/Fire750, CD4-Pacific Blue, CD8a-BV605, CD56-PECy7, CD14-BV785, HLA-DR-BV650 (Biolegend, San Diego, CA) and CD16-FITC (Invitrogen). PD-1 and PDL-1 expression as well as activation levels were analyzed using a PD-1-APC or PDL-1-APC and a CD69-PE antibody (BD biosciences), respectively. Isotype controls were obtained from BD biosciences. […]

[4] = test system: protein translation in platelets; assay: PD-L1 on cycloheximide pre-treated platelets after co-incubation with PD-L1-GFP transfected A549 cells; format: cell-based, human; details: platelets pre-treated with 100 μM cycloheximide
Procedure: Tumor cells were coated with platelets as described previously with slight modifications. Briefly summarized, PRP was obtained from fresh whole blood by centrifugation for 20 minutes at 120 g. Platelets were washed twice with citrate wash buffer (128 mmol/L NaCl, 11 mmol/L glucose, 7.5 mmol/L Na2HPO4, 4.8 mmol/L sodium citrate, 4.3 mmol/L NaH2PO4, 2.4 citric acid, 0.35% bovine serum albumin). In some experiments platelets were pretreated with 5 μg/mL anti-CD42b (clone: AK2), 20 μg/mL anti-integrin β1 (clone: P4C10) and anti-Integrin α5 (clone: JBS5) or corresponding control IgG1 (20 μg/mL) for 30 minutes at 37° C. and 7% CO2. Tumor cells were incubated in platelets at a platelet-tumor cell ratio of […] for 30 minutes at 37° C. and 7% CO2. For immunofluorescence microscopy and FACS analysis cells were fixed in 2% PFA in PBS (pH 7.4) for 10 min at −20° C. prior staining.
For overexpression of PD-L1 (CD274) a True-ORF-GFP-tagged expression vector was used (OriGene Technologies, Rockville, MD, USA). Control cells were transfected using a FLAG tag. The FLAG cDNA was generated by PCR and cloned into the PD-L1-GFP vector using AsiSI and MluI restriction sites. Tumor cells were transfected with 2.5 μg DNA (PD-L1-GFP, FLAG-GFP) using Lipofectamine™ 3000, in accordance to the manufacturer's instructions.

Compound: CCCCS(=O)(=O)N[C@@H](Cc1ccc(OCCCCC2CCNCC2)cc1)C(=O)O [Tirofiban]
platelet adhesion to fibronectin [1]: only marginally reduced

T cell (CD4+ TEM) activity, IFNγ and TNFα release (PD-L1 on platelets [2]): restored
T cell inhibitory effect of PD-L1 expressing platelets (PD-L1 on platelets [3]): abolished
Compound: Atezolizumab

Compound: Nc1ncnc2c1ncn2[C@@H]1O[C@H](COP(=O)(O)OP(=O)(O)O)[C@@H](O)[C@H]1O [ADP]
pPD-L1 expression on the platelet surface upon platelet stimulation (platelets): maximized

Compound: collagen
pPD-L1 expression on the platelet surface upon platelet stimulation (platelets): maximized

Compound: C[C@@H]1C[C@@H]([C@H](O)CC2CC(=O)NC(=O)C2)C(=O)[C@@H](C)C1 [cycloheximide]
PD-L1-GFP expression in platelets [4]: did not result in a reduction

Compound: Thrombin Receptor Activator Peptide 6 [TRAP-6]
pPD-L1 expression on the platelet surface upon platelet stimulation (platelets): maximized
